In US12298319B2, “Method for measuring alpha value of muscarinic M1 receptor positive allosteric modulators” (Takeda Pharmaceutical Company Limited, priority 2017, dated 2025):
Counter-ions that a name gives are not always drawn.

What was measured:
[1] = tested on: layer 5 pyramidal neurons; test: Electrophysiology, current clamp of layer 5 pyramidal neurons in mPFC slices; assay type: cell-based, mouse; settings: bath application, Compound D at 10 μM
Procedure: Experiments were performed on coronal brain slices of the medial prefrontal cortex (mPFC) from 4-week-old male C57BL/6 mice. The animals were quickly sacrificed and the brain was placed in an ice-cold NMDG artificial cerebrospinal fluid (ACSF) (in mM): NMDG, 92; KCl, 2.5; CaCl2, 0.5; NaH2PO4, 1.25; MgSO4, 6; NaHCO3, 30; glucose, 25; HEPES, 20; thiourea, 2; Na-ascorbate, 5; and Na-pyruvate, 3) (Ting J. T. et al., Methods Mol Biol. 2014; 1183:221-42). Slices were cut at a thickness of 300 μm with a vibroslicer. Slices were initially transferred to a holding chamber containing NMDG aCSF for 15 minutes at 34° C. Slices were then transferred to a room temperature holding chamber for at least 1 h containing HEPES aCSF (in mM): NMDG, 92; KCl, 2.5; CaCl2, 2; NaH2PO4, 1.25; MgSO4, 2; NaHCO3, 30; glucose, 25; HEPES, 20; thiourea, 2; Na-ascorbate, 5; and Na-pyruvate, 3). Subsequently, the slices were transferred to the recording chamber, in which they were submerged and perfused with aCSF containing the following (in mM): NaCl, 124; KCl, 5; NaH2PO4, 1.2; MgCl2, 1.5; CaCl2, 2.5; glucose, 10; and NaHCO3, 24), at a flow rate of 1-2 ml/min. All buffers were continuously bubbled and saturated with carbogen (95% O2/5% CO2). Current clamp recordings were carried out at 32-33° C. from visually identified pyramidal neurons from layer 5 using a borosilicate pipette (5-7 MΩ) filled with intracellular solution (in mM): K-gluconate, 135; KCl, 4; HEPES, 10; EGTA, 0.2; MgATP, 4; Na2GTP, 0.3; pH 7.3 with KOH). Signals were acquired using a Multiclamp 700B amplifier and a Digidata 1440A interface board (Molecular Devices Japan, Tokyo, Japan), filtered between 2 kHz, sampled at 10 kHz, and analyzed with pClamp10 software.
M1Rs are known to contribute to the three cholinergic effects in layer 5 pyramidal neurons: the resting membrane potential (RMP) and physiological responses such as the after hyperpolarization (AHP) the after depolarization (ADP) that typically follow brief periods of action potential generation (Gulledge et al., J. Neurosci. 2009 Aug. 5; 29(31): 9888-9902). To investigate effects of M1 PAMs with different n value on brain function, cholinergic excitation by Compound D and Compound C were assessed. First, the muscarinic receptor agonist carbachol ([…] for 10 min) was tested by bath application (FIG. 13-A, FIG. 13-B, FIG. 13-C).

[2] = tested on: scopolamine-induced cognitive deficits in rats; test: Novel object recognition task (NORT), scopolamine-induced memory deficits; assay type: in vivo, rat
Procedure: On the day before testing, Long Evans rats were allowed to habituate to the behavioral test room environment for over 1 h, and then they were allowed to habituate to the empty test box (a gray-colored polyvinyl chloride box (40×40×50 cm)) for 10 min individually. Testing was comprised of two 3-min trials called the acquisition and the retention trials. These trials were separated by a given inter-trial interval (ITI). On the testing day, in the acquisition trial, rats were allowed to explore two identical objects (A1 and A2) for 3 min. In the retention trial, rats were again allowed to explore a familiar object (A3) and a novel object (B) for 3 min. The object exploration was defined as rats' licking, sniffing or touching the object with limbs while sniffing. Leaning against the object to look upward, standing or sitting on the object was excluded. The exploration time of each object (A1, A2, A3 and B) in each trial was measured manually. Novel discrimination index (NDI) was calculated using the following equation: novel object interaction/total interaction×100(%).
The acquisition and the retention trials were separated by 4 h ITI. […] Scopolamine (0.1 mg/kg) was administered subcutaneously 30 min prior to the acquisition trial.
(§1) The acquisition and the retention trials were separated by 4 h ITI.
as §1

[3] = tested on: rats; test: Assessment of cholinergic side effects in rats
Procedure: SD Rats were placed individually into observation cages and acclimated for at least 1 h. […] The severity of diarrhea was scored as follows: 0, normal pellets; 1, wet but formed feces; 2, swollen or mucous feces; 3, severe watery diarrhea. For diarrhea, the number of rats and mice, in which more than or equal to 2 was scored, was counted. For fasciculation, the number of rats with marked fasciculation of both the upper and lower limbs was counted. For lacrimation, the number of rats, in which moderate to marked discharge (severer lacrimation than fluid around eyes) was induced, was counted. For salivation, the number of rats with severe salivation, but not just noticeably wet around mouth, was induced was counted. The maximum score during the observation was adopted.
For diarrhea, the number of rats scored more than or equal to 2 was counted. For fasciculation, the number of rats with marked fasciculation of both the upper and lower limbs was counted. For lacrimation, the number of rats in which moderate to marked discharge (severer lacrimation than fluid around eyes) was counted. For salivation, the number of rats with severe salivation, but not just noticeably wet around mouth, was counted. The maximum score during the observation was adopted. Data were presented as the number of incidence per total rats.
For diarrhea, the number of rats in which loose or mucous stool, or diarrhea was induced was counted. For fasciculation, the number of rats with marked fasciculation of both the upper and lower limbs was counted. For lacrimation, the number of rats in which moderate to marked discharge (severe lacrimation than fluid around eyes) was caused was counted. For salivation, the number of rats with severe salivation, but not just noticeably wet around mouth was counted. The maximum score during the observation was adopted. Data were presented as the number of incidence per total rats.

[4] = carbachol 10 M [sic] for 10 min

Structure (SMILES): C[N+](C)(C)CCOC(N)=O [Carbachol, carbachol]
- after hyperpolarization (AHP) [1, 4]: suppressed AHP
- resting membrane potential (RMP) [1, 4]: induced depolarization of the RMP
- after depolarization (ADP) ([1]; carbachol for 10 min as printed): produced an ADP potential

Structure (SMILES): COc1cc2c(cc1OC)C(=O)C(CC1CCN(Cc3ccccc3)CC1)C2 (stereo not shown) [Donepezil, Donepezil hydrochloride]
- NDI in NORT, scopolamine-induced deficits ([2]; 0.3 and 1 mg/kg p.o., rats, P≤0.025): significantly increased NDI
- minimal efficacy dose in rats (cognitive improvement) ([2]; NORT, scopolamine-treated rats, p.o.): 0.3 mg/kg
- NDI ([2]; scopolamine-treated rats, 0.1 mg/kg p.o. alone, Example 28): 52.7%
- NDI ([2]; scopolamine-treated rats, donepezil 0.1 mg/kg p.o. alone, Example 29): 49.5%
- cholinergic side effects in addition to diarrhea ([3]; 10 mg/kg p.o., rats): induced salivation, myosis, and fasciculation
- diarrhea induction in rats (score) ([3]; P≤0.025 at 10 and 30 mg/kg p.o.): induced diarrhea dose-dependently

Structure (SMILES): CCN(C)C(=O)Oc1cccc([C@H](C)N(C)C)c1 [Rivastigmine, rivastigmine]
- NDI ([2]; scopolamine-treated rats, rivastigmine 0.1 mg/kg i.p. alone, Example 31): 53.9%
